Literature values in patent EP0424512B1, “ANTIMETASTATIC PEPTIDES” (SRI INTERNATIONAL, priority 1989, dated 1990).

Tested on: human fibrosarcoma HT-1080 and Chinese hamster ovary cells
Details: relative to laminin

Sequence: CDPGYIGSR [nine amino acid peptide from domain III of laminin B₁ chain]
- activity of laminin in cell attachment on a molar basis: 0.5-1%
